1 compound from paper PMC6271168, “Fumigant Toxicity of Oriental Sweetgum (Liquidambar orientalis) and Valerian (Valeriana wallichii) Essential Oils and Their Components, Including Their Acetylcholinesterase Inhibitory Activity, against Japanese Termites (Reticulitermes speratus)” (Molecules, 2014) can be followed below.

Converted amounts (≈) assume the structure as drawn.

The target in this assay is T1, Japanese termite acetylcholinesterase (AChE).
T1 construct: gene AChE1; native; crude Triton X-100 extract (15,000 x g supernatant) of 50 whole adult termites, not purified
As to the kind of experiment: modified Ellman assay, […] nm, probit analysis. The assay is classed as biochemical, Reticulitermes speratus. The settings on record: acetylthiocholine iodide substrate; pH 7.8 extraction buffer; room temperature; 10 min pre-incubation; crude extract.

With `C=C/C(C)=C\CC=C(C)C` [compound 6, cis-Ocimene], the IC50 is 131 µg/mL (≈ 962 µM).
